In patent US10226451B2, “Substituted bicyclic compounds as bromodomain inhibitors” (ZENITH EPIGENETICS LTD, priority 2013, dated 2019):

How the values were obtained:
[1] = test system: hApoA-I mRNA in Huh7 cells; test: Up-regulation of hApoA-1 mRNA transcription in Huh7 cells; type: cell-based, Human; conditions: EC170, Huh7 cells, 48 h
Experimental: In this example, hApoA-I mRNA in tissue culture cells was quantitated to measure the transcriptional up-regulation of hApoA-I when treated with a compound of the present disclosure.
Huh7 cells (2.5×10^5 per well) were plated in a 96-well plate using 100 μL DMEM per well, (Gibco DMEM supplemented with penicillin/streptomycin and 10% FBS), 72 h before the addition of the compound. The cells are treated with increasing concentrations of the compound or DMSO (0.1%), and incubated at 37° C., 5% CO2 for 48 h. Spent media was removed from the Huh-7 cells and placed on ice for immediate use with the “LDH cytotoxicity assay Kit II” from Abcam. The cells remaining in the plate were rinsed with 100 μL PBS. Cells were harvested using the mRNA Catcher PLUS kit according to manufacturer's instructions. The eluted mRNA was then used in a one-step quantitative real-time PCR reaction, using components of the RNA UltraSense™ One-Step Kit (Life Technologies) together with Applied Biosystems TaqMan® primer-probes for hApoA-I and Cyclophilin. Real-time PCR plates were run on a ViiA™7 real time PCR machine (Applied Biosystems), data was analyzed, normalizing the Ct values for hApoA-1 to an internal control, prior to determining the fold induction of each unknown sample, relative to the control.

[2] = test system: hIL-17 mRNA in human peripheral blood mononuclear cells; test: Inhibition of hIL-17 mRNA transcription in OKT3-stimulated PBMC; type: cell-based; conditions: OKT3 antibody, 6 h, read-out: IL-17 activity
Summary of the method: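 Human PBMC in medium with 20 ng/ml IL-2 were pretreated 1 h at 37 °C with test compound or 0.1% DMSO, then stimulated with OKT3 (10 ug/ml 10× stock) for 6 h. IL-17 mRNA was measured by one-step TaqMan qRT-PCR, normalized to cyclophilin, and expressed as fold change versus control.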

[3] = test system: c-myc in Human AML MV4-11 cells; test: Inhibition of c-MYC expression (mRNA, real-time PCR) in MV4-11 cells; type: cell-based; conditions: 3 h, mRNA by real-time PCR
Summary of the method: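 Cells at 2.5×10^4 per well in IMDM/10% FBS were treated with rising compound concentrations or 0.1% DMSO for 3 h at 37° C., in triplicate. cMYC mRNA was measured by one-step TaqMan qRT-PCR, normalised to cyclophilin, and expressed as fold expression relative to control.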

MM1.s cells xenograft = test: In vivo efficacy, multiple myeloma xenograft model using MM1.s cells; design: species or system mouse; conditions: SCID-Beige mice, oral dosing, tumor growth inhibition
Experimental: MM1.s cells (ATCC) were grown under standard cell culture conditions and SCID-Beige strain of female mice age 6-7 weeks were injected with 10×10^6 cells/animal in 100 μL PBS+100 μL Matrigel in the lower left abdominal flank. By approximately day 21 after MM1.s cells injection, mice were randomized based on tumor volume (L×W×H)/2) of average ˜120 mm^3. Mice were dosed orally with compound at 25 to 90 mg/kg b.i.d and or q.d in EA006 formulation at 10 mL/kg body weight dose volume. Tumor measurements were taken with electronic micro calipers and body weights measured on alternate days beginning from dosing period. The average tumor volumes, percent Tumor Growth Inhibition (TGI) and % change in body weights were compared relative to Vehicle control animals. The means, statistical analysis and the comparison between groups were calculated using Student's t-test in Excel.

MV4-11 cells xenograft = test: In vivo efficacy, acute myeloid leukemia xenograft model using MV4-11 cells; design: species or system mouse; conditions: MV4-11 xenograft, nu/nu mice, oral dosing, tumor growth inhibition
Experimental: MV4-11 cells (ATCC) were grown under standard cell culture conditions and (NCr) nu/nu fisol strain of female mice age 6-7 weeks were injected with 5×10^6 cells/animal in 100 μL PBS+100 μL Matrigel in the lower left abdominal flank. By approximately day 18-21 after MV4-11 cells injection, mice were randomized based on tumor volume (L×W×H)/2) of average ˜100-300 mm^3. Mice were dosed orally with compound at 5 to 120 mg/kg b.i.d and/or q.d. on a continuous dosing schedule and at 2.5 to 85 mg/kg q.d. on a 5 day on 2 day off, 100 mg/kg q.d. on a 4 day on and 3 day off, 135 mg/kg q.d. on a 3 day on and 4 day off, 180 mg/kg on a 2 day on and 5 day off and 240 mg/kg on a 1 day on and 6 days off dosing schedules in EA006 formulation at 10 mL/kg body weight dose volume. Tumor measurements were taken with electronic micro calipers and body weights measured on alternate days beginning from dosing period. The average tumor volumes, percent Tumor Growth Inhibition (TGI) and % change in body weights were compared relative to Vehicle control animals. The means, statistical analysis and the comparison between groups were calculated using Student's t-test in Excel.

**Q.** For `Cc1noc(C)c1-c1cc(-c2c(C)nn(C)c2C)c2c(c1)[nH]c(=O)n2C` [Example Compound 9, 5-(3,5-dimethylisoxazol-4-yl)-1-methyl-7-(1,3,5-trimethyl-1H-pyrazol-4-yl)-1H-benzo[d]imidazol-2(3H)-one], which ApoA-1 activity [1] is on record?
**A.** The ApoA-1 activity was “+++ (EC170 value less than or equal to 0.3 μM were deemed to be highly active (+++))”.

**Q.** And the IC50 [2]?
**A.** The IC50 was at most 300 nM.

**Q.** And the IC50 [3]?
**A.** Its IC50 is at most 300 nM.

**Q.** And the In vivo activity (MM1.s cells xenograft)?
**A.** The In vivo activity was “Active”.

**Q.** And the In vivo activity (MV4-11 cells xenograft)?
**A.** The In vivo activity was “Active”.
